# In patent US7534809B2, “Phospho-indoles as HIV inhibitors” (priority 2004, dated 2009):
# pEC50, pIC50: −log10 of the molar value. Where two headings read alike, the source gives them in different places.
# Tests used:
# [1] = test system: HIV mutant strain K103N/Y181C; assay: Cell-based assay using BH-10 cells, K103N/Y181C mutant
# Description: (§1) In a typical embodiment, the NNRTIs display an EC50 in a mutant HIV strain of less than approximately 5, 2.5, 1 or 0.1 μM concentration. The degree of cross-resistance against a drug resistant strain of HIV is measured by assessing the EC50 of the desired oxo-pyrimidine compound in the target mutated, i.e., drug resistant, virus.
# (§2) The degree of cross-resistance against a drug resistant strain of HIV can easily be measured by assessing the EC50 of the desired indole in the target mutated i.e., drug resistant, virus.
# [2] = target: HIV reverse transcriptase Y181C (Human immunodeficiency virus type 1 group M subtype B, UniProt P03366, Y780C); assay: Enzyme assay, reverse transcriptase Y181C; type: biochemical, HIV-1
# From the text: (§3) As used herein, “reverse transcriptase” or “RT” refers to an enzyme having a non-nucleoside inhibitory binding site similar to that of HIV-1 RT, and to which ligands, which bind the composite binding pocket of the compounds of the present invention, also will bind. One measure of RT activity is viral replication. A measure of HIV-1 viral replication is the automated assay that utilizes MTT, as described earlier in this specification. Another measure is the p24 core antigen enzyme immunoassay, such as, for example, the assay commercially available from Coulter Corporation/Immunotech, Inc.® (Westbrook, Mich.). Another means for measuring RT activity is by assaying recombinant HIV-1 reverse transcriptase activity, such as, for example, by using the Quan-T-RT™ assay system commercially available from Amersham® (Arlington Heights, Ill.) and as described by Bosworth et al., Nature, 1989, 341:167-168.
# (§4) The 3-phosphoindoles can be assessed for their ability to inhibit reverse transcriptase activity in vitro according to standard screening methods.
# [3] = test system: HIV BH-10 WT; assay: Cell-based assay using BH-10 cells, wild type
# [4] = target: HIV reverse transcriptase K103N (Human immunodeficiency virus type 1 group M subtype B, UniProt P03366, K702N); assay: Enzyme assay, reverse transcriptase K103N; type: biochemical, HIV-1
# From the text: as §3, §4
# [5] = target: HIV reverse transcriptase WT (Human immunodeficiency virus type 1 group M subtype B, UniProt P03366); assay: Enzyme assay, reverse transcriptase WT; type: biochemical, HIV-1
# From the text: as §3, §4
# [6] = target: HIV reverse transcriptase K103N/Y181C (Human immunodeficiency virus type 1 group M subtype B, UniProt P03366, K702N/Y780C); assay: Enzyme assay, reverse transcriptase K103N/Y181C; type: biochemical, HIV-1
# From the text: as §3, §4
# [7] = test system: HIV mutant strain Y181C; assay: Cell-based assay using BH-10 cells, Y181C mutant
# Description: as §1, §2
# [8] = Human immunodeficiency virus 1, read-out: EC50 K103N/Y181C, BH-10 cells, K103N/Y181C mutant
# [9] = Human immunodeficiency virus 1, read-out: EC50 WT///B, BH-10 cells, wild type
# [10] = Human immunodeficiency virus 1, read-out: EC50 Y181C, BH-10 cells, Y181C mutant
Compound,"pEC50 [1, 8]",pIC50 [2],"pEC50 [3, 9]",pIC50 [4],pIC50 [5],pIC50 [6],"pEC50 [7, 10]","pEC50 ([1]; BH-10 cells, K103N/Y181C mutant, read-out: EC50 K103N/Y181C)","pEC50 ([3]; BH-10 cells, wild type, read-out: EC50 WT///B)","pEC50 ([7]; BH-10 cells, Y181C mutant, read-out: EC50 Y181C)"
CCOP(=O)(c1ccccc1)c1c(C(N)=O)[nH]c2ccc(Cl)cc12 (stereo not drawn) [Compound 6a],7.79,5.71,8.92,5.79,6.14,< 5.30,7.86,,,
CCOP(=O)(c1cc(F)cc(F)c1)c1c(C(N)=O)[nH]c2ccc(Cl)cc12 (stereo not drawn) [Compound 6ac],< 5.90,5.46,8.43,4.90,6.14,< 5.30,6.01,,,
CCOP(=O)(c1ccccc1F)c1c(C(N)=O)[nH]c2ccc(Cl)cc12 (stereo not drawn) [Compound 6ad],7.77,5.36,9.05,5.48,6.36,< 5.30,7.23,,,
CCOP(=O)(c1cc(C)cc(C)c1)c1c(C(N)=O)[nH]c2ccc(Cl)cc12 (stereo not drawn) [Compound 6b],7.29,5.37,8.52,5.58,5.78,< 5.30,7.55,,,
CCOP(=O)(c1ccc(F)cc1)c1c(C(N)=O)[nH]c2ccc(Cl)cc12 (stereo not drawn) [Compound 6c],< 5.90,< 5.30,7.46,< 5.30,5.44,< 5.30,< 5.90,,,
COP(=O)(c1ccccc1)c1c(C(N)=O)[nH]c2ccc(Cl)cc12 (stereo not drawn) [Compound 7ah],8.47,6.46,9.40,6.41,6.51,5.17,8.31,,,
COP(=O)(c1cc(C)cc(C)c1)c1c(C(=O)NCc2ccccc2N)[nH]c2ccc(Cl)cc12 (stereo not drawn) [Compound 18n],7.64,,7.71,,,,7.06,,,
COP(=O)(c1cc(F)cc(F)c1)c1c(C(=O)NCc2ccc(C#N)cc2)[nH]c2ccc(Cl)cc12 (stereo not drawn) [Compound 18q],7.27,,8.52,,,,7.45,,,
COP(=O)(c1cc(C)cc(C)c1)c1c(C(=O)NCc2ccncc2)[nH]c2ccc(Cl)c(F)c12 (stereo not drawn) [Compound 18r],8.44,,8.42,,,,7.78,,,
COP(=O)(c1cc(F)cc(F)c1)c1c(C(=O)NCc2cc[n+]([O-])cc2)[nH]c2ccc(Cl)cc12 (stereo not drawn) [Compound 22a],7.95,,8.51,,,,7.28,,,
COP(=O)(c1cc(C)cc(C#N)c1)c1c(C(=O)NCc2cc[n+]([O-])cc2)[nH]c2ccc(Cl)cc12 (stereo not drawn) [Compound 22ak],7.96,,8.15,,,,8.17,,,
COP(=O)(c1cc(C)cc(C)c1)c1c(C(=O)NCc2ccc[n+]([O-])c2)[nH]c2ccc(Cl)cc12 (stereo not drawn) [Compound 22b],8.49,,8.46,,,,7.73,,,
COP(=O)(c1cc(C)cc(C)c1)c1c(C(=O)NCCc2cc[n+]([O-])cc2)[nH]c2ccc(Cl)cc12 (stereo not drawn) [Compound 22c],7.57,,8.55,,,,8.00,,,
COP(=O)(c1cc(C)cc(C)c1)c1c(C(=O)NCc2cc[n+]([O-])cc2F)[nH]c2ccc(Cl)cc12 (stereo not drawn) [Compound 22d],8.17,,8.54,,,,8.82,,,
COP(=O)(c1cc(C)cc(C)c1)c1c(C(=O)NCc2cnc[n+]([O-])c2)[nH]c2ccc(Cl)cc12 (stereo not drawn) [Compound 22g],8.52,,8.68,,,,7.97,,,
CCc1cc(C)cc(P(=O)(OC)c2c(C(=O)NCc3ccc[n+]([O-])c3)[nH]c3ccc(Cl)cc23)c1 (stereo not drawn) [Compound 22h],8.44,,8.80,,,,8.24,,,
COP(=O)(c1cc(C)cc(C)c1)c1c(C(=O)NCc2ccc[n+]([O-])c2)[nH]c2ccc(Cl)c(F)c12 (stereo not drawn) [Compound 22j],,,,,,,,8.22,8.17,8.00
COP(=O)(c1cc(C)cc(C)c1)c1c(C(=O)NCc2cc[n+](C)cc2)[nH]c2ccc(Cl)cc12 (stereo not drawn) [Compound 22l],7.11,,8.21,,,,6.57,,,
COP(=O)(c1cc(C)cc(C)c1)c1c(C(=O)NCc2cc[n+]([O-])cc2)[nH]c2ccc(Cl)c(F)c12 (stereo not drawn) [Compound 22m],8.72,,8.68,,,,8.59,,,
COP(=O)(c1cc(C)cc(C)c1)c1c(C(=O)NCc2cc[n+]([O-])cc2)[nH]c2ccc(Cl)cc12 (stereo not drawn) [Compound 22n],8.35,,8.70,,,,8.06,,,
COP(=O)(c1cc(C)cc(C)c1)c1c(C(=O)NCc2cccc[n+]2[O-])[nH]c2ccc(Cl)cc12 (stereo not drawn) [Compound 22p],7.75,,8.72,,,,7.29,,,
COP(=S)(c1ccccc1)c1c(C(N)=O)[nH]c2ccc(Cl)cc12 (stereo not drawn) [Compound 25b],7.05,,9.40,,,,7.38,,,
COP(=O)(c1cccc(/C=C/C#N)c1)c1c(C(N)=O)[nH]c2ccc(Cl)cc12 (stereo not drawn) [Compound 33a],8.47,,8.49,,,,8.70,,,
CCOP(=O)(c1cccs1)c1c(C(N)=O)[nH]c2ccc(Cl)cc12 (stereo not drawn) [Compound 51],7.18,,8.66,,,,7.28,,,
COP(=O)(c1ccsc1)c1c(C(N)=O)[nH]c2ccc(Cl)cc12 (stereo not drawn) [Compound 52a],8.20,,9.30,,,,8.82,,,
COP(=O)(c1cccs1)c1c(C(N)=O)[nH]c2ccc(Cl)cc12 (stereo not drawn) [Compound 52b],8.60,,9.30,,,,8.06,,,
COP(=O)(CC=C(C)C)c1c(C(N)=O)[nH]c2ccc(Cl)cc12 (stereo not drawn) [Compound 57b],6.76,,9.10,,,,7.88,,,
COP(=O)(c1cc(F)cc(F)c1)c1c(C(=O)NCC#N)[nH]c2ccc(Cl)cc12 (stereo not drawn) [Compound 59a],8.08,,8.85,,,,7.33,,,
COP(=O)(c1cc(F)cc(F)c1)c1c(C(=O)NCCC#N)[nH]c2ccc(Cl)cc12 (stereo not drawn) [Compound 59b],7.67,,8.46,,,,7.16,,,
